Measurements taken from BindingDB's records for patent US20240368161 (Cgenetech (Suzhou, China), 2024).

What was measured:
[1] = molecular target: T1, Tyrosine-protein kinase JAK3 (Homo sapiens, UniProt P52333); test: JAK3 Kinase Inhibitory Activity Determination
T1 sequence (P52333 whole entry): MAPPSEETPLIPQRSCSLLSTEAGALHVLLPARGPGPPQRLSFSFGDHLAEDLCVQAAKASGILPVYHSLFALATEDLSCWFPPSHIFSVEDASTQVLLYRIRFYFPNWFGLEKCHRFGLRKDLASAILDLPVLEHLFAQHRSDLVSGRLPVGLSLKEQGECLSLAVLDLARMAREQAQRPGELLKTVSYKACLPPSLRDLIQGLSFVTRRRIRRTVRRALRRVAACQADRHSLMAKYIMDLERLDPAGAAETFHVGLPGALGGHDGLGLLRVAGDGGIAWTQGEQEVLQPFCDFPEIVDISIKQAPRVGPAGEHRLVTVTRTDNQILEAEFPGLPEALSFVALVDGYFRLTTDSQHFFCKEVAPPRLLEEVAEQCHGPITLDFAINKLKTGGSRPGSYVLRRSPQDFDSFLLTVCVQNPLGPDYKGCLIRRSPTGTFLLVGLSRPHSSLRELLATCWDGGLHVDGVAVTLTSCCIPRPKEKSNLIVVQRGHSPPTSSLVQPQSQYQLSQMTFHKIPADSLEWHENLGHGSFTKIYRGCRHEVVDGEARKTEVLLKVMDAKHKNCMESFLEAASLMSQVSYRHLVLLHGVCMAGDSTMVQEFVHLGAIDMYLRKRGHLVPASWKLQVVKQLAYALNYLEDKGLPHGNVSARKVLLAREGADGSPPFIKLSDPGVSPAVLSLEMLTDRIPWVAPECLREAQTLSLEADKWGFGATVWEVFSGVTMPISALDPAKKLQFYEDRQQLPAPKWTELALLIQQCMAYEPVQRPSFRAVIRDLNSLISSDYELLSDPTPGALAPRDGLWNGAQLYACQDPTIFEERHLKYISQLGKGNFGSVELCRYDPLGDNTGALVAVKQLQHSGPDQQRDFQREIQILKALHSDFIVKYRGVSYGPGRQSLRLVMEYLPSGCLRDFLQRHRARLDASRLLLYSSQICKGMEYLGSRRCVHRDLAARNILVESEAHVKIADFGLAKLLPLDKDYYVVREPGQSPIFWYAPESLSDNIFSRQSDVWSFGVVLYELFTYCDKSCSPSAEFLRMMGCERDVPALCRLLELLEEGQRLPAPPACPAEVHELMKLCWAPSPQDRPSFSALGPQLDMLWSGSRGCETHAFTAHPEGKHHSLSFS
Experimental: At the end of incubation, HTRF665/620 signals were read on a multifunctional microplate reader.

[2] = molecular target: Tyrosine-protein kinase JAK2 (Homo sapiens, UniProt O60674); test: JAK2 Kinase Inhibitory Activity Determination
[3] = molecular target: Tyrosine-protein kinase JAK1 (Homo sapiens, UniProt P23458); test: JAK1 Kinase Inhibitory Activity Determination
Chain of Tyrosine-protein kinase JAK1 (P23458 whole entry): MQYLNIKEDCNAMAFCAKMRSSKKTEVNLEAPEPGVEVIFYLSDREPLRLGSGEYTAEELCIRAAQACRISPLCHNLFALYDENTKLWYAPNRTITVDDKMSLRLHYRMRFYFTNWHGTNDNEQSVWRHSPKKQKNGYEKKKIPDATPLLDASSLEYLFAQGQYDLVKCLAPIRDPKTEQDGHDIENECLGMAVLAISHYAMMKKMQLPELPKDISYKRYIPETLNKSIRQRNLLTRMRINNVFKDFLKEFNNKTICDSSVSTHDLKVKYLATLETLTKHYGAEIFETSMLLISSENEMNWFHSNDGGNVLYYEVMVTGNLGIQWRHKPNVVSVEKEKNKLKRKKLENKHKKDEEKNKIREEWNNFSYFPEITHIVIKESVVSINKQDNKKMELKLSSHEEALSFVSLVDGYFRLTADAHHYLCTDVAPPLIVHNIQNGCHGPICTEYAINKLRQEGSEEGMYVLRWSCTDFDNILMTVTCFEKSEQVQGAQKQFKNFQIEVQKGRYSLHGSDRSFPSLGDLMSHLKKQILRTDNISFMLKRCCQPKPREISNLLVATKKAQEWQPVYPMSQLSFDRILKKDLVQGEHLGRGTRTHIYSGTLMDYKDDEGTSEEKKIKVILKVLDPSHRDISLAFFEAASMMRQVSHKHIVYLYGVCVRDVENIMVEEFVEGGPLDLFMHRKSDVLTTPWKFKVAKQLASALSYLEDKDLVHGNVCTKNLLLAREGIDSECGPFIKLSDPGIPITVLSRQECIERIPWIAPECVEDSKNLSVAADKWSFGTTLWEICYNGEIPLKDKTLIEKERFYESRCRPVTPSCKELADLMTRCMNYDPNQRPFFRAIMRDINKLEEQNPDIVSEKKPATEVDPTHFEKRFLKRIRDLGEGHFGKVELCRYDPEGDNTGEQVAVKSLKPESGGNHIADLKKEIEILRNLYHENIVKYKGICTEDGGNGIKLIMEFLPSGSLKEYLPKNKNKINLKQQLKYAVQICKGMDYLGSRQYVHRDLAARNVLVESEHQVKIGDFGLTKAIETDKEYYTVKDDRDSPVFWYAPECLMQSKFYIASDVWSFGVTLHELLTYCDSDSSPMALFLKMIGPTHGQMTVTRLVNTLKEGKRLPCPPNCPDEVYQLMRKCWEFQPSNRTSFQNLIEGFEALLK

Chain of Tyrosine-protein kinase JAK2 (O60674 whole entry): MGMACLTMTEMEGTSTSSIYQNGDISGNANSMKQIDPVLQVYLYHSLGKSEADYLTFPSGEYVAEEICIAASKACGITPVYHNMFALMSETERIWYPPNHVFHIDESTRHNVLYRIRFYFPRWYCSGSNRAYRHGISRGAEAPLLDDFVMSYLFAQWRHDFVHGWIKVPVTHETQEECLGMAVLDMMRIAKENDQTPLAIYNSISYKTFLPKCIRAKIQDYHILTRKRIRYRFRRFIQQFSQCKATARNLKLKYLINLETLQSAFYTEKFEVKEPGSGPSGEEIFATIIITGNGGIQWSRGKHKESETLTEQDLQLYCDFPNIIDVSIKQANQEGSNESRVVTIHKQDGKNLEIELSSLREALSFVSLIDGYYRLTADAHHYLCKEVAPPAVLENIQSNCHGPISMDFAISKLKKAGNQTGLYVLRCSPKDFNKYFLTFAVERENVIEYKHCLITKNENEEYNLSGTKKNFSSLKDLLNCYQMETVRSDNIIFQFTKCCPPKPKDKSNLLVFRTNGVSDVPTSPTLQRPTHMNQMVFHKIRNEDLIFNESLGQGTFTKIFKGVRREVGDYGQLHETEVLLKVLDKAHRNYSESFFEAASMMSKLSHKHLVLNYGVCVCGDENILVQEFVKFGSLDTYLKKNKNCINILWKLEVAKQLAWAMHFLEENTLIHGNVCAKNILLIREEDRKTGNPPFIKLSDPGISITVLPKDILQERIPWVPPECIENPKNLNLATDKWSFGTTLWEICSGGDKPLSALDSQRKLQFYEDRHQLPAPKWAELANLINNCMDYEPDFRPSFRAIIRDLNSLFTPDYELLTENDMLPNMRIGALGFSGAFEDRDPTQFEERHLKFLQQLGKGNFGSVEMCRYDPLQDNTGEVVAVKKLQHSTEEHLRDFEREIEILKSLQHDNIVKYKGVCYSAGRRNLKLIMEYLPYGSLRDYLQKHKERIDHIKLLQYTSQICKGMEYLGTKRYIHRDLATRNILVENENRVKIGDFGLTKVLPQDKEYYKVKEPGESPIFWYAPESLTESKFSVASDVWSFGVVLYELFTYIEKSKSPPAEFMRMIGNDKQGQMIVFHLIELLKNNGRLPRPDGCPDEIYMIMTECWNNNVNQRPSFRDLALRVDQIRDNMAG

Row | IC50 [1] [nM] | IC50 [2] [nM] | IC50 [3] [nM] | Compound
1 | 3170 | 232 | 137 | CS(=O)(=O)C1CN(Cc2ccc(-c3cccc4nc(NC(=O)C5CC5)cn34)cc2)C1 [US20240368161, Compound 15]
2 | 3120 | 127 | 74.4 | CS(=O)(=O)C1CCN(Cc2ccc(-c3cccc4nc(NC(=O)C5CC5)cn34)cc2)CC1 [US20240368161, Compound 16]
3 | 1460 | 72.7 | 125 | O=C(Nc1cn2c(-c3ccc(OC4CCS(=O)(=O)CC4)cc3)cccc2n1)C1CC1 [US20240368161, Compound 17]
4 | 5760 | 176 | 262 | CS(=O)(=O)C1CCN(Cc2ccc(-c3cccc4nc(NC(=O)C5CC5)cn34)c(F)c2)CC1 [US20240368161, Compound 20]
5 | 6900 | 229 | 611 | CCCS(=O)(=O)C1CCN(Cc2ccc(-c3cccc4nc(NC(=O)C5CC5)cn34)cc2)CC1 [US20240368161, Compound 31]
